From patent US20240246942A1, “KINASE INHIBITORS FOR THE TREATMENT OF NEURODEGENERATIVE DISEASES” (priority 2020, published 2024) come the findings set out here.

Common to all, as to assay: biochemical
For experiment [1], the target named is T1, panel of 374 wild-type kinases (Homo sapiens, UniProt O60674).
T1 construct: purchased Reaction Biology Corporation
The following applies: read-out: % Enzyme Activity (relative to DMSO controls), JAK2.

Experiment [2] concerns the target T2, panel of 374 wild-type kinases (Homo sapiens, UniProt Q15569).
T2 construct: purchased Reaction Biology Corporation
The following applies: read-out: % Enzyme Activity (relative to DMSO controls), kinase TESK1.

The target in experiment [3] is T3, panel of 374 wild-type kinases (Homo sapiens, UniProt Q52WX2).
T3 construct: purchased Reaction Biology Corporation
T3 sequence (Q52WX2 whole entry): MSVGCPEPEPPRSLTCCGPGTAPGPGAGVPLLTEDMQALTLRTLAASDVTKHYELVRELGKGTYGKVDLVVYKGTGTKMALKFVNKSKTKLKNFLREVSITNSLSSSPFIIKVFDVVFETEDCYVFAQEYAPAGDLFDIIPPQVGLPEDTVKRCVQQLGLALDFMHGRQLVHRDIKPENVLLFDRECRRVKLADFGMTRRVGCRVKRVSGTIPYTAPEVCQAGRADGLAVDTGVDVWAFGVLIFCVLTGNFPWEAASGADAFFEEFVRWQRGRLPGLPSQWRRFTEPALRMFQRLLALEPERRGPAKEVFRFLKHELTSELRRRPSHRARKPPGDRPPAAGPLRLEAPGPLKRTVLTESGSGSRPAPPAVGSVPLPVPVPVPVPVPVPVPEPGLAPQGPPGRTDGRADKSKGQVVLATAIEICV
As to conditions: read-out: % Enzyme Activity (relative to DMSO controls), kinase SBK1.

The target in experiment [4] is T4, panel of 374 wild-type kinases (Homo sapiens, UniProt Q6DT37).
T4 construct: purchased Reaction Biology Corporation
T4 sequence (Q6DT37 whole entry): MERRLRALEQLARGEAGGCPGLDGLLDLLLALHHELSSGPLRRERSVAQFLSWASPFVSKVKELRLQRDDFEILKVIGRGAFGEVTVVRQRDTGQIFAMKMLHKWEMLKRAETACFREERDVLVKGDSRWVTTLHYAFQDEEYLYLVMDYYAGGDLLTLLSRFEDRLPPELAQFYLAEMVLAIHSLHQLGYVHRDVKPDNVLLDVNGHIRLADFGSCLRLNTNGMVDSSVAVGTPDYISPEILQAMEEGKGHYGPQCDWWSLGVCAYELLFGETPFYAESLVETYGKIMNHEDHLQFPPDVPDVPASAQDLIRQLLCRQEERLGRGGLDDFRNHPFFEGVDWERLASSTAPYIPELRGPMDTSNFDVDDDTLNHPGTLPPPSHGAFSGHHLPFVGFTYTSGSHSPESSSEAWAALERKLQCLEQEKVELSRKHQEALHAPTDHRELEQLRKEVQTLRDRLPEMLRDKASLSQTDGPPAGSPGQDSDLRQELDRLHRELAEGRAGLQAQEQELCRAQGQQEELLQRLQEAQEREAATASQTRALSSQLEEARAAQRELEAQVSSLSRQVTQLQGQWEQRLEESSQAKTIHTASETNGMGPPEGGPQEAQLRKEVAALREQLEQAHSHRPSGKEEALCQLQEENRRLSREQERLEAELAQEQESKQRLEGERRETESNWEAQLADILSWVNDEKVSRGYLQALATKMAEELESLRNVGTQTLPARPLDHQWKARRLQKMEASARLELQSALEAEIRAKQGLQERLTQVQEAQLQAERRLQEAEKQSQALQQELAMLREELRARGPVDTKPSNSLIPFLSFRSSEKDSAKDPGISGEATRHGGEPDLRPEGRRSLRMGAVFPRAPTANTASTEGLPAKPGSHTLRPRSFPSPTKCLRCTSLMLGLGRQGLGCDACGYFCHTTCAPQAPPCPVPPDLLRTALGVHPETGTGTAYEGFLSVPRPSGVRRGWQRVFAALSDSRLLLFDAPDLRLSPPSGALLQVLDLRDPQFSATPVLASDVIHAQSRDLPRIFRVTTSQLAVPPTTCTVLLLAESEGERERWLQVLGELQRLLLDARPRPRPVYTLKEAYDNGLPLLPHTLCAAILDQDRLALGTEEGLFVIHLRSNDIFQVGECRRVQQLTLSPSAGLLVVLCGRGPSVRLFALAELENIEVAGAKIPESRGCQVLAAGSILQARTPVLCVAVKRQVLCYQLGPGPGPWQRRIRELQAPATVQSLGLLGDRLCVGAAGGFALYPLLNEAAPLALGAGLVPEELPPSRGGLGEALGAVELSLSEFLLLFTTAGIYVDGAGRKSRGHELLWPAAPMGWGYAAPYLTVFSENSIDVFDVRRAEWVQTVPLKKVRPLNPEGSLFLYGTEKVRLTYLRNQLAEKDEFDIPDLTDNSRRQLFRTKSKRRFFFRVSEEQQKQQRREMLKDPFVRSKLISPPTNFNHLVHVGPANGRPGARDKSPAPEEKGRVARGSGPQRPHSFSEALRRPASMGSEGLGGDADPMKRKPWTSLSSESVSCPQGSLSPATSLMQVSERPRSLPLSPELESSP
As to conditions: read-out: % Enzyme Activity (relative to DMSO controls), DMPK2.

The target of experiment [5] is T5, panel of 374 wild-type kinases (Homo sapiens, UniProt Q86V86).
T5 construct: purchased Reaction Biology Corporation
As to conditions: read-out: % Enzyme Activity (relative to DMSO controls), kinase PIM3.

In experiment [6] the target is T6, panel of 374 wild-type kinases (Homo sapiens, UniProt Q8IU85).
T6 construct: purchased Reaction Biology Corporation
T6 sequence (Q8IU85 whole entry): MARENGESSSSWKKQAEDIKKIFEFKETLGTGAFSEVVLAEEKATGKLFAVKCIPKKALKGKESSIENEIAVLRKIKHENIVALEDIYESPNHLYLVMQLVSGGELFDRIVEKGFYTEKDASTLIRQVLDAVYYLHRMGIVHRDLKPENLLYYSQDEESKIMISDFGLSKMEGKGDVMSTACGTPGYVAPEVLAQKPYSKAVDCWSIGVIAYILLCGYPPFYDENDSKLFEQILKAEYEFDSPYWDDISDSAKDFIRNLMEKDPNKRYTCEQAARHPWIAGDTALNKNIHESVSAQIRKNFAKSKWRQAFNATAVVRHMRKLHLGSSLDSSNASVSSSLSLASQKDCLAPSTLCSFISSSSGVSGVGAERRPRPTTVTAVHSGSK
As to conditions: read-out: % Enzyme Activity (relative to DMSO controls), CAMK1d.

In experiment [7] the target is T7, panel of 374 wild-type kinases (Homo sapiens, UniProt Q8N568).
T7 construct: purchased Reaction Biology Corporation
T7 sequence (Q8N568 1-766): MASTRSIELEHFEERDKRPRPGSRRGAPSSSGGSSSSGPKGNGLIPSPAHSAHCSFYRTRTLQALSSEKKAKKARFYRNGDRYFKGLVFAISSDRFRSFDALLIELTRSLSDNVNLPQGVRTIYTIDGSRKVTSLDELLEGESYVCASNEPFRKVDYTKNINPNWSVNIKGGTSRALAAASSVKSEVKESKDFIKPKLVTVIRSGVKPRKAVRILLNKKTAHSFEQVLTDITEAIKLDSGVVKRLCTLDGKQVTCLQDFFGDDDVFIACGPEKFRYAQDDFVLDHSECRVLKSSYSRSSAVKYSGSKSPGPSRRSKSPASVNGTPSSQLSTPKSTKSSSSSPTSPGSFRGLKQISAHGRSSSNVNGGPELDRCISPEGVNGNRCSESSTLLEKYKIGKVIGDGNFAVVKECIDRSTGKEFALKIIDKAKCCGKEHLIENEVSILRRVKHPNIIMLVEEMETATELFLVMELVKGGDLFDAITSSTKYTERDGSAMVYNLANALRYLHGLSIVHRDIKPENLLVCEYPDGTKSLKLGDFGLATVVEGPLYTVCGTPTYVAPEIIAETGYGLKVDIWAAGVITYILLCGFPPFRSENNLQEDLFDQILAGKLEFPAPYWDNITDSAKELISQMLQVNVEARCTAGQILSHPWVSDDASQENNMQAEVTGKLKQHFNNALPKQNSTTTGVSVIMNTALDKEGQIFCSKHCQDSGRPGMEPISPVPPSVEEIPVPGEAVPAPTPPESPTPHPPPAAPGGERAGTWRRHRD
As to conditions: read-out: % Enzyme Activity (relative to DMSO controls), DCAMKL2.

Experiment [8] concerns the target T8, panel of 374 wild-type kinases (Homo sapiens, UniProt Q8TDX7).
T8 construct: purchased Reaction Biology Corporation
The following applies: read-out: % Enzyme Activity (relative to DMSO controls), NEK7.

Experiment [9] addresses T9, panel of 374 wild-type kinases (Homo sapiens, UniProt Q9H093).
T9 construct: purchased Reaction Biology Corporation
T9 sequence (Q9H093 1-628): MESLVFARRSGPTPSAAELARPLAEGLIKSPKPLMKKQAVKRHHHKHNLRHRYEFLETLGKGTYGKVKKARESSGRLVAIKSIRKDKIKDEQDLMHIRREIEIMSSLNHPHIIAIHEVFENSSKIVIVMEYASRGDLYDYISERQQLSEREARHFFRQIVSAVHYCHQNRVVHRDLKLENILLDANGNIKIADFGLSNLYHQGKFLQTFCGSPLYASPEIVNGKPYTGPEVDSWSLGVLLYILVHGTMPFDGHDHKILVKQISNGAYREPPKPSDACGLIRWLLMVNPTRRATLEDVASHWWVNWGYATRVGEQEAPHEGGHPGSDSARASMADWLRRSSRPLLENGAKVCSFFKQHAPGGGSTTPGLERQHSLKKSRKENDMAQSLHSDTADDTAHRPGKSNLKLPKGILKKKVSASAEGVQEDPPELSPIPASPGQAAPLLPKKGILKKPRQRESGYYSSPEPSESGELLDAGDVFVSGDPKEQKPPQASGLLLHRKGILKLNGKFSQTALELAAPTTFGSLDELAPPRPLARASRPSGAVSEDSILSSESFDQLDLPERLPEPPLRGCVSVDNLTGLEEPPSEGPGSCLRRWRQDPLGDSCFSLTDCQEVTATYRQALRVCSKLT
As to conditions: read-out: % Enzyme Activity (relative to DMSO controls), kinase SNARK/NUAK2.

The target of experiment [10] is T10, panel of 374 wild-type kinases (Homo sapiens, UniProt Q9NY57).
T10 construct: purchased Reaction Biology Corporation
T10 sequence (Q9NY57 whole entry): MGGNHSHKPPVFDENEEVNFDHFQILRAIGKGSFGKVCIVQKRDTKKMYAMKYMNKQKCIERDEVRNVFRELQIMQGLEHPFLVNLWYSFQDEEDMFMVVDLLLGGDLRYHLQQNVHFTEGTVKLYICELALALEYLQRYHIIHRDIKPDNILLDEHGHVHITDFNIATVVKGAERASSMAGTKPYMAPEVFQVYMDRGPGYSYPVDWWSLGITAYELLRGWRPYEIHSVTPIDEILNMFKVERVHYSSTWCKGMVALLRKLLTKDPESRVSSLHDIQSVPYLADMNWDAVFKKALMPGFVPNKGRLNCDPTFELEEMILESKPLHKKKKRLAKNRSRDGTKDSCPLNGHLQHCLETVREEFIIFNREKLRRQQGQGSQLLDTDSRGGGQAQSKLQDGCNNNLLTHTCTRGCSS
The following applies: read-out: % Enzyme Activity (relative to DMSO controls), kinase STK32B/YANK2.

Experiment [11] deals with T11, panel of 374 wild-type kinases (Homo sapiens, UniProt Q9Y3S1).
T11 construct: purchased Reaction Biology Corporation
The following applies: read-out: % Enzyme Activity (relative to DMSO controls), kinase WNK2.

In experiment [12] the target is T12, panel of 374 wild-type kinases (Homo sapiens, UniProt Q9Y463).
T12 construct: purchased Reaction Biology Corporation
T12 sequence (Q9Y463 whole entry): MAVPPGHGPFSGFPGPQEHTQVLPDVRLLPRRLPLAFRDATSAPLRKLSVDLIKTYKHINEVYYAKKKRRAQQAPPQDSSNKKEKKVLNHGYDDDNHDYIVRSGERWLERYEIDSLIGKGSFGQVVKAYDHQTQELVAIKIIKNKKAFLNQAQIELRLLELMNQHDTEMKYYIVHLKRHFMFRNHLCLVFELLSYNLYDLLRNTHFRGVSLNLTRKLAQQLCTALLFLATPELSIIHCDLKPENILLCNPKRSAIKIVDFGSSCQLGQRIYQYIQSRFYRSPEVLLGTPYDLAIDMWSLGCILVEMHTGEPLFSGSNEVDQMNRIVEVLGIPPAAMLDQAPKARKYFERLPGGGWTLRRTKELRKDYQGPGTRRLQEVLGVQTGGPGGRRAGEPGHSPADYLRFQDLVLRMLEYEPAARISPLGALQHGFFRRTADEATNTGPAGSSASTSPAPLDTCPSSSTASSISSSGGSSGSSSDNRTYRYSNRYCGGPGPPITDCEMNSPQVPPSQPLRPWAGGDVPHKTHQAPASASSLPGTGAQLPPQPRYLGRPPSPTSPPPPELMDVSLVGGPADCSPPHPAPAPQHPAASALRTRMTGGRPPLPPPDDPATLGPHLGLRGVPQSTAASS
As to conditions: DYRK1B, read-out: % Enzyme Activity (relative to DMSO controls).

T2 sequence (Q15569 whole entry): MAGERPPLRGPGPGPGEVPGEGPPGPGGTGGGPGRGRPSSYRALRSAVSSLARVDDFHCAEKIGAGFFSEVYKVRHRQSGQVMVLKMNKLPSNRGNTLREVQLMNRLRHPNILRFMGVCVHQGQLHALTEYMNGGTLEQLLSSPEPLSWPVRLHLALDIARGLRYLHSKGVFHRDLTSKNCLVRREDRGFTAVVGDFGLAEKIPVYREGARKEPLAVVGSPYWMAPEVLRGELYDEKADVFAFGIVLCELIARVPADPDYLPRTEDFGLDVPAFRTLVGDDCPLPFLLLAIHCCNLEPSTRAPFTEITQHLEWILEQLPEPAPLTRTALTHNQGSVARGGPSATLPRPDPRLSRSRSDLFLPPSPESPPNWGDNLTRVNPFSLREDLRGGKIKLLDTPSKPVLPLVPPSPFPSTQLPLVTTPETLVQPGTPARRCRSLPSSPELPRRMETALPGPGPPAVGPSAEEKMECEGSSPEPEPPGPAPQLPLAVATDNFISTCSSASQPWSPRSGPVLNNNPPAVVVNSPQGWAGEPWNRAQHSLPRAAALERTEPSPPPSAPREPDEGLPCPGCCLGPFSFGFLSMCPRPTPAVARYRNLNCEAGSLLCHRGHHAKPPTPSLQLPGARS
T8 sequence (Q8TDX7 whole entry): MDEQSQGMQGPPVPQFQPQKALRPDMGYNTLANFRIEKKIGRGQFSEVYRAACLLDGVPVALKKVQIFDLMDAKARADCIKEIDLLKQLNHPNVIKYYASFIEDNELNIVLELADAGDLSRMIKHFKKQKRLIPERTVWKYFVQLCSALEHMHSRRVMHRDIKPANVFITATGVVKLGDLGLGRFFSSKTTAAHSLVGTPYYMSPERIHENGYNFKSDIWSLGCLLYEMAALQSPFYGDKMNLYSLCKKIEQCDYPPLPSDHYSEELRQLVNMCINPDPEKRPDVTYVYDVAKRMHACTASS

Take `O=C(Nc1cnn(-c2csc(C(=O)NC3COC3)c2)c1)Nc1ccccc1Cl` [Compound 17, 4-(4-(3-(2-chlorophenyl)ureido)-1H-pyrazol-1-yl)-N-(oxetan-3-yl)thiophene-2-carboxamide]: the remaining activity at 5 µM in [1] turned out to be 98.2%; in experiment [2], 101%; in [3], 99.1%; in [4], 87%; in [5] it was 61.2%; in experiment [6], 104%. Also, the remaining activity at 5 µM was determined as 99.9% in [7]; 102% in [8]; 99.8% in experiment [9]; 122% in [10]; 96.3% in experiment [11]; 87% in experiment [12].

Regarding `O=C(Nc1cnn(-c2csc(C(=O)NC3COC3)c2)c1)Nc1c(F)cccc1Cl` [Compound 25, 4-(4-(3-(2-chloro-6-fluorophenyl)ureido)-1H-pyrazol-1-yl)-N-(oxetan-3-yl)thiophene-2-carboxamide], the remaining activity at 5 µM in experiment [1] worked out at 96.5%; in experiment [2] it was 91%; in experiment [3] it was 97.7%; in [4] it was 119%; in [5] it was 73.9%; in experiment [6], 99.6%. The remaining activity at 5 µM turned out to be 94.3% in [7]; 88.1% in experiment [8]; 97.8% in experiment [9]; 103% in [10]; 91.9% in experiment [11]; 82.8% in experiment [12].

On to `Cc1sc(C(=O)NC2COC2)cc1-n1cc(NC(=O)Nc2c(F)cccc2Cl)cn1` [Compound 27, 4-(4-(3-(2-chloro-6-fluorophenyl)ureido)-1H-pyrazol-1-yl)-5-methyl-N-(oxetan-3-yl)thiophene-2-carboxamide], for which the remaining activity at 10 µM stood at 95% in experiment [1] (10 uM); 88.7% in experiment [2] (10 uM); 87.5% in experiment [3] (10 uM); 118% in experiment [4] (10 uM); 129% in experiment [5] (10 uM); 105% in [6] (10 uM). Moreover, the remaining activity at 10 µM turned out to be 107% in experiment [7] (10 uM); 100% in experiment [8] (10 uM); 112% in [9] (10 uM); 89.8% in experiment [10] (10 uM); 91.1% in experiment [11] (10 uM); 105% in [12] (10 uM).
